Test results: US9169241B2, “Quinolinyloxyphenylsulfonamides” (Max-Planck-Gesellschaft Zur Forderung der Wissenschaften …, priority 2009, dated 2015)
Read-outs that look alike come from different tables or passages of the source.

Key:
Assay type in all cases: cell-based
SF126 [1] = assay: Matrigel outgrowth assay/branching assay; details: Homo sapiens, SF-126, Table Vb, read-out: Total branching inhibition in Matrigel SF126
Procedure, shortened: (§1)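 Matrigel 3 mg/ml, polymerized 1 h 37° C; 5000 cells/well + cmpd 3.125/1.56/0.78 μM or DMSO. Imaged 48/72/96 h, 5× objective. Positive = total branching block.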

U118 [2] = assay: Matrigel outgrowth assay/branching assay; details: Table Vb, read-out: Total branching inhibition in Matrigel U118
Procedure, shortened: as §1

A172 [3] = assay: Matrigel outgrowth assay/branching assay; details: Homo sapiens, A 172, Table Vb, read-out: Total branching inhibition in Matrigel A172
Procedure, shortened: as §1

A172 [4] = assay: Cell vitality assay (ATP assay, CellTiter-Glo); details: Homo sapiens, A 172; A172, 72 h; Table IIa; read-out: IC50 ATP-Assay after 72 h A172
Procedure, shortened: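 Luminescent ATP read-out of viable cells; IC50 = concentration at which ATP falls to 50% of DMSO control. Cells seeded at 1000/well, treated 72 h with seven concentrations from 0.195 to 12.5 μM.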

SF126 [5] = assay: Apoptosis assay (Cellomics, nucleus condensation); details: Homo sapiens, SF-126, Table III, read-out: Apoptosis induction in SF126
Procedure, shortened: (§2)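 Cells seeded at 5000 per well were stained live with Hoechst 33342, and nuclear condensation was quantified per nucleus by automated fluorescence imaging alongside cell counts. Compound was tested at 12.5, 6.25, 3.125, 1.56, 0.78 and 0.39 μM against a DMSO control, with reads at 24 h and 48 h.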

U118 [6] = assay: Apoptosis assay (Cellomics, nucleus condensation); details: Table III, read-out: Apoptosis induction in U118
Procedure, shortened: as §2

Hs578T = assay: Apoptosis assay (Cellomics, nucleus condensation); details: Homo sapiens, Hs-578T, Table III, read-out: Apoptosis induction in Hs578T
Procedure, shortened: as §2

cells = assay: Boyden chamber migration assay (Table VI); details: Homo sapiens, Hs-578T, 16 h, Hs578T cells; 16 h migration
Procedure, shortened: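 Migration read-out is a count of fixed cells on the underside of an […] insert membrane after 16 h. Chemoattractant was medium with 10% FCS in the lower chamber; 20000 cells started in serum-free medium with 0.1% BSA above, and those left on top were removed by swab.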

tumor cell = assay: Matrigel outgrowth assay/branching assay (Table Va)
Procedure, shortened: as §1

[7] = Homo sapiens, C8161 cells, read-out: Total branching inhibition in Matrigel C8161
[8] = Homo sapiens, Hs-578T, Hs578T cells, read-out: Total branching inhibition in Matrigel Hs578T
[9] = U118 cells, read-out: Total branching inhibition in Matrigel U118
[10] = U138 cells, read-out: Total branching inhibition in Matrigel U138

IC50 (SF126 [5]) | IC50 (U118 [6]) | IC50 (Hs578T) | IC50 (cells) | IC50 (tumor cell; [7]) | IC50 (tumor cell; [8]) | IC50 (tumor cell; [9]) | IC50 (tumor cell; [10]) | Structure (SMILES) | IC100 (SF126 [1]) | IC100 (U118 [2]) | IC100 (A172 [3]) | IC50 (A172 [4])
 |  |  |  |  |  |  |  | COc1cc2c(Oc3ccc(NS(=O)(=O)c4cc(F)ccc4F)cc3Cl)ccnc2cc1OCCCN1CCN(C)CC1 [Example 112, N-(3-Chloro-4-{6-methoxy-7-[3-(4-methyl-piperazin-1-yl)-propoxy]-quinolin-4-yloxy}-phenyl)-2,5-difluoro-benzenesulfonamide] | ≤ 12.5 µM | ≤ 12.5 µM | ≤ 12.5 µM | ≤ 12.5 µM
 |  |  |  |  |  |  |  | COc1cc2c(Oc3ccc(NS(=O)(=O)c4c(Cl)cccc4Cl)cc3F)ccnc2cc1OCCCN1CCCC(C)C1 (centres unmarked) [Example 51, 2,6-Dichloro-N-(3-fluoro-4-{6-methoxy-7-[3-(3-methyl-piperidin-1-yl)-propoxy]-quinolin-4-yloxy}-phenyl)-benzenesulfonamide] | ≤ 12.5 µM | ≤ 12.5 µM | > 12.5 µM | ≤ 12.5 µM
≤ 12.5 µM | ≤ 12.5 µM | 12.5 to 50 µM | ≤ 5 µM | ≤ 5 µM | ≤ 5 µM | ≤ 5 µM | 5 to 50 µM | COc1cc2c(Oc3ccc(NS(=O)(=O)c4cc(Cl)cc(Cl)c4OC)cc3F)ccnc2cc1OCCCN1CCCCC1 [Example 34, 3,5-Dichloro-N-{3-fluoro-4-[6-methoxy-7-(3-piperidin-1-yl-propoxy)-quinolin-4-yloxy]-phenyl}-2-methoxy-benzenesulfonamide] |  |  |  | 
≤ 12.5 µM | ≤ 12.5 µM | ≤ 12.5 µM | ≤ 5 µM | ≤ 5 µM | ≤ 5 µM | 5 to 50 µM | 5 to 50 µM | COc1cc2c(Oc3ccc(NS(=O)(=O)c4ccccc4F)cc3F)ccnc2cc1OCCN1CCOCC1 [Example 81, 2-Fluoro-N-{3-fluoro-4-[6-methoxy-7-(2-morpholin-4-yl-ethoxy)-quinolin-4-yloxy]-phenyl}-benzenesulfonamide] |  |  |  | 
 |  |  |  |  |  |  |  | COC(=O)c1sccc1S(=O)(=O)Nc1ccc(Oc2ccnc3cc(OCCCN4CCCCC4)c(OC)cc23)c(F)c1 [Example 155, 3-{3-Fluoro-4-[6-methoxy-7-(3-piperidin-1-yl-propoxy)-quinolin-4-yloxy]-phenylsulfamoyl}-thiophene-2-carboxylic acid methyl ester] | ≤ 12.5 µM | ≤ 12.5 µM | ≤ 12.5 µM | ≤ 12.5 µM
≤ 12.5 µM | ≤ 12.5 µM | ≤ 12.5 µM | ≤ 5 µM | ≤ 5 µM | ≤ 5 µM | ≤ 5 µM | 5 to 50 µM | COc1cc2c(Oc3ccc(NS(=O)(=O)c4cc(Cl)cc(Cl)c4OC)cc3F)ccnc2cc1OCCCN1CCN(C)CC1 [Example 35, 3,5-Dichloro-N-(3-fluoro-4-{6-methoxy-7-[3-(4-methyl-piperazin-1-yl)-propoxy]-quinolin-4-yloxy}-phenyl)-2-methoxy-benzenesulfonamide] |  |  |  | 
 |  |  |  |  |  |  |  | COc1cc2c(Oc3ccc(NS(=O)(=O)c4ccccc4OC(F)(F)F)cc3F)ccnc2cc1OCCCN1CCCC(C)C1 (centres unmarked) [Example 45, N-(3-Fluoro-4-{6-methoxy-7-[3-(3-methyl-piperidin-1-yl)-propoxy]-quinolin-4-yloxy}-phenyl)-2-trifluoromethoxy-benzenesulfonamide] | ≤ 12.5 µM | ≤ 12.5 µM | > 12.5 µM | ≤ 12.5 µM
 |  |  |  |  |  |  |  | COC(=O)c1sccc1S(=O)(=O)Nc1ccc(Oc2ccnc3cc(OCCCN4CCC(C)CC4)c(OC)cc23)c(F)c1 [Example 156, 3-(3-Fluoro-4-{6-methoxy-7-[3-(4-methyl-piperidin-1-yl)-propoxy]-quinolin-4-yloxy}-phenylsulfamoyl)-thiophene-2-carboxylic acid methyl ester] | ≤ 12.5 µM | ≤ 12.5 µM | > 12.5 µM | ≤ 12.5 µM
≤ 12.5 µM | 12.5 to 50 µM | 12.5 to 50 µM | ≤ 5 µM | ≤ 5 µM | ≤ 5 µM | ≤ 5 µM | 5 to 50 µM | COc1cc2c(Oc3ccc(NS(=O)(=O)c4cccc5ccccc45)cc3F)ccnc2cc1OCCCN1CCCC(C)C1 (centres unmarked) [Example 58, Naphthalene-1-sulfonic acid (3-fluoro-4-{6-methoxy-7-[3-(3-methyl-piperidin-1-yl)-propoxy]-quinolin-4-yloxy}-phenyl)-amide] |  |  |  | 
 |  |  |  |  |  |  |  | COc1cc2c(Oc3ccc(NS(=O)(=O)c4cccc(Cl)c4F)cc3F)ccnc2cc1OCCCN1CCCC(C)C1 (centres unmarked) [Example 54, 3-Chloro-2-fluoro-N-(3-fluoro-4-{6-methoxy-7-[3-(3-methyl-piperidin-1-yl)-propoxy]-quinolin-4-yloxy}-phenyl)-benzenesulfonamide] | ≤ 12.5 µM | > 12.5 µM | > 12.5 µM | ≤ 12.5 µM
 |  |  |  |  |  |  |  | COc1cc2c(Oc3ccc(NS(=O)(=O)c4c(F)cccc4F)cc3F)ccnc2cc1OCCCN1CCN(C)CC1 [Example 110, 2,6-Difluoro-N-(3-fluoro-4-{6-methoxy-7-[3-(4-methyl-piperazin-1-yl)-propoxy]-quinolin-4-yloxy}-phenyl)-benzenesulfonamide] | ≤ 12.5 µM | ≤ 12.5 µM | > 12.5 µM | ≤ 12.5 µM
 |  |  |  |  |  |  |  | COC(=O)c1sccc1S(=O)(=O)Nc1ccc(Oc2ccnc3cc(OCCCN4CCOCC4)c(OC)cc23)c(F)c1 [Example 157, 3-{3-Fluoro-4-[6-methoxy-7-(3-morpholin-4-yl-propoxy)-quinolin-4-yloxy]-phenylsulfamoyl}-thiophene-2-carboxylic acid methyl ester] | ≤ 12.5 µM | > 12.5 µM | > 12.5 µM | ≤ 12.5 µM
 |  |  |  |  |  |  |  | COc1cc2c(Oc3ccc(NS(=O)(=O)c4ccccc4OC(F)(F)F)cc3F)ccnc2cc1OCCCN(C)C [Example 179, N-{4-[7-(3-Dimethylamino-propoxy)-6-methoxy-quinolin-4-yloxy]-3-fluoro-phenyl}-2-trifluoromethoxy-benzenesulfonamide] | ≤ 12.5 µM | ≤ 12.5 µM | > 12.5 µM | ≤ 12.5 µM
 |  |  |  |  |  |  |  | COc1cc2c(Oc3ccc(NS(=O)(=O)c4c(Cl)cccc4Cl)cc3F)ccnc2cc1OCCCN(C)C [Example 181, 2,6-Dichloro-N-{4-[7-(3-dimethylamino-propoxy)-6-methoxy-quinolin-4-yloxy]-3-fluoro-phenyl}-benzenesulfonamide] | ≤ 12.5 µM | ≤ 12.5 µM | > 12.5 µM | ≤ 12.5 µM
 |  |  |  |  |  |  |  | COc1cc2c(Oc3ccc(NS(=O)(=O)c4c(Cl)cccc4Cl)cc3F)ccnc2cc1OCCN1CCOCC1 [Example 104, 2,6-Dichloro-N-{3-fluoro-4-[6-methoxy-7-(2-morpholin-4-yl-ethoxy)-quinolin-4-yloxy]-phenyl}-benzenesulfonamide] | > 12.5 µM | > 12.5 µM | > 12.5 µM | 12.5 to 50 µM
 |  |  |  |  |  |  |  | COc1cc2c(Oc3ccc(NS(=O)(=O)c4c(F)cccc4F)cc3F)ccnc2cc1OCCCN(C)C [Example 178, N-{4-[7-(3-Dimethylamino-propoxy)-6-methoxy-quinolin-4-yloxy]-3-fluoro-phenyl}-2,6-difluoro-benzenesulfonamide] | ≤ 12.5 µM | ≤ 12.5 µM | > 12.5 µM | ≤ 12.5 µM
≤ 12.5 µM | ≤ 12.5 µM | ≤ 12.5 µM | 5 to 50 µM | 5 to 50 µM | ≤ 5 µM | ≤ 5 µM | 5 to 50 µM | COc1cc2c(Oc3ccc(NS(=O)(=O)c4c(F)cccc4F)cc3F)ccnc2cc1OCCN1CCOCC1 [Example 82, 2,6-Difluoro-N-{3-fluoro-4-[6-methoxy-7-(2-morpholin-4-yl-ethoxy)-quinolin-4-yloxy]-phenyl}-benzenesulfonamide] |  |  |  | 
≤ 12.5 µM | ≤ 12.5 µM | ≤ 12.5 µM | ≤ 5 µM | ≤ 5 µM | ≤ 5 µM | ≤ 5 µM | 5 to 50 µM | COc1cc2c(Oc3cccc(NS(=O)(=O)c4ccccc4C(F)(F)F)c3)ccnc2cc1OCCCN1CCN(C)CC1 [Example 102, N-(3-{6-Methoxy-7-[3-(4-methyl-piperazin-1-yl)-propoxy]-quinolin-4-yloxy}-phenyl)-2-trifluoromethyl-benzenesulfonamide] |  |  |  | 
≤ 12.5 µM | ≤ 12.5 µM | ≤ 12.5 µM | 5 to 50 µM | 5 to 50 µM | ≤ 5 µM | ≤ 5 µM | ≤ 5 µM | COc1cc2c(Oc3ccc(NS(=O)(=O)c4ccc(F)c(Cl)c4)cc3F)ccnc2cc1OCCCN1CCCC(C)C1 (centres unmarked) [Example 57, 3-Chloro-4-fluoro-N-(3-fluoro-4-{6-methoxy-7-[3-(3-methyl-piperidin-1-yl)-propoxy]-quinolin-4-yloxy}-phenyl)-benzenesulfonamide] |  |  |  | 
